According to patent EP1090023B1 (GLAXO GROUP LIMITED, priority 1998, dated 1999):

Legend:
Assay type in all cases: cell-based
adenosine 2a = adenosine 2a (Homo sapiens, UniProt P29274); test: Agonist activity against adenosine receptor subtypes, CHO cells with cAMP response element/SPAP reporter (basal cAMP); conditions: ratio to EC50 of NECA; transfected CHO cells; effect on basal cAMP via SPAP
How it was run: (§1)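 Human adenosine receptor-transfected CHO cells carrying a cAMP response element–SPAP reporter; agonism read as SPAP change from basal cAMP for A2a, or from forskolin-enhanced cAMP for A1 and A3. EC50 expressed as ratio to that of NECA, a non-selective agonist.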

adenosine 3 = molecular target: T1, adenosine 3 (Homo sapiens, UniProt P0DMS8); test: Agonist activity against adenosine receptor subtypes, CHO cells with cAMP response element/SPAP reporter (forskolin-enhanced cAMP); conditions: ratio to EC50 of NECA; transfected CHO cells; effect on forskolin-enhanced cAMP via SPAP
T1 sequence (P0DMS8 1-318): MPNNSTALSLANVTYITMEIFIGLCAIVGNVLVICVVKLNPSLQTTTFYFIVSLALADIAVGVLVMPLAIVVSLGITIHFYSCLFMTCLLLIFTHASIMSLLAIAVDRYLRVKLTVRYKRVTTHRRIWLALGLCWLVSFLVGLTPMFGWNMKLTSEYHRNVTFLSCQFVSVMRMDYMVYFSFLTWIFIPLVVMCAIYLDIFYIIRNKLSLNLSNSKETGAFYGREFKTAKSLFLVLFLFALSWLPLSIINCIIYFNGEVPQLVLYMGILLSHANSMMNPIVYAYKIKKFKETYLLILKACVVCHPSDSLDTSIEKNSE
How it was run: as §1

adenosine 1 = molecular target: T2, adenosine 1 (Homo sapiens, UniProt P30542); test: as above; conditions: ratio to EC50 of NECA; transfected CHO cells; effect on forskolin-enhanced cAMP via SPAP
T2 sequence (P30542 1-326): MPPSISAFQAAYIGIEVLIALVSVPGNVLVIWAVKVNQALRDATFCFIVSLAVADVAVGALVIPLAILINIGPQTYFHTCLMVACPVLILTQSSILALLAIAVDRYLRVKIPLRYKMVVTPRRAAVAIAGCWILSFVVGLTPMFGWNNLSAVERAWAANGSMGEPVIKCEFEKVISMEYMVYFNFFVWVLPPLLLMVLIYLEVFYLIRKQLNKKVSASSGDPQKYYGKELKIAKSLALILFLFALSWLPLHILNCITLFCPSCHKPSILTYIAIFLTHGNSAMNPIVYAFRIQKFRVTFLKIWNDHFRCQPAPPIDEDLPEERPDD
How it was run: as §1

adenosine 2a, sequence (P29274 whole entry): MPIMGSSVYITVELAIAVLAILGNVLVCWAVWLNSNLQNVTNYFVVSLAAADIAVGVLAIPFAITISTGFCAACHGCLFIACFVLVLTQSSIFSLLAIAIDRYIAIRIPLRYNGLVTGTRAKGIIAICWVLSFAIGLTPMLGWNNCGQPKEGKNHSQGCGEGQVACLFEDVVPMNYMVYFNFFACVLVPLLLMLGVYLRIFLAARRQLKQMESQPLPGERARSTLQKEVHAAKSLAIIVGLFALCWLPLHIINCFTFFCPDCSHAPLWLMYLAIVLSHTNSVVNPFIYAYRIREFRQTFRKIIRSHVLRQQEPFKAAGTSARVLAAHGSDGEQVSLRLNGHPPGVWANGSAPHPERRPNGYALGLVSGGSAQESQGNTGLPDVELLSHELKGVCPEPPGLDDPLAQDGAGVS

Compound	A2a (EC50 values as a ratio of that of NECA) (adenosine 2a)	A3 (EC50 values as a ratio of that of NECA) (adenosine 3)	A1 (EC50 values as a ratio of that of NECA) (adenosine 1)
CCc1cc([C@H]2O[C@@H](n3cnc4c(NC(CC)CC)nc(NCCN5CCCCC5)nc43)[C@H](O)[C@@H]2O)no1.O=CO.O=CO [Example 43, (2R,3R,4S,5R)-2-[6-(1-Ethyl-propylamino)-2-(2-piperidin-1-yl-ethylamino)-purin-9-yl]-5-(5-ethylisoxazol-3-yl)tetrahydrofuran-3,4-diol diformate]	3.25	>1124	21.82
(2R,3R,4S,5R)-2-[6-(2,2-Diphenyl-ethylamino)-2-(1R-hydroxy-2-phenyl-ethylamino)-purin-9-yl]-5-(1-ethyl-1H-[1,2,4]triazol-3-yl)-tetrahydro-furan-3,4-diol formate [Example 35]	6.33	>240	5261.1

The remaining lines, values ahead:

A2a (EC50 values as a ratio of that of NECA) (adenosine 2a)	A3 (EC50 values as a ratio of that of NECA) (adenosine 3)	A1 (EC50 values as a ratio of that of NECA) (adenosine 1)	Compound
74.29	>249	1921.5	CCC(CC)Nc1nc(NCCC2CCCCC2)nc2c1ncn2C1OC(c2nnc(C3CC3)o2)C(O)C1O.O=CO.O=CO [Example 41, (2R,3R,4S,5S)-2-[2-(2-Cyclohexyl-ethylamino)-6-(1-ethyl-propylamino)-purin-9-yl]-5-(5-cyclopropyl-[1,3,4]oxadiazol-2-yl)-tetrahydro-furan-3,4-diol diformate]
41.04	>87	306.9	CCC(CC)Nc1nc(N[C@H](CO)C(C)C)nc2c1ncn2[C@@H]1O[C@H](c2nnc(C3CC3)o2)[C@@H](O)[C@H]1O.O=CO [Example 42, (2R,3R,4S,5S)-2-[6-(1-Ethyl-propylamino)-2-(1S-hydroxymethyl-2-methyl-propylamino)-purin-9-yl]-5-(5-cyclopropyl-[1,3,4]oxadiazol-2-yl)-tetrahydro-furan-3,4-diol formate]
37.3	>245	3371	(2R,3R,4S,5S)-2-[6-(2,2-Diphenyl-ethylamino)-2-(2-piperidin-1-yl-ethylamino)-purin-9-yl]-5-[5-methyl-[1,3,4]thiadiazol-2-yl)-tetrahydro-furan-3,4-diol diformate [Example 28]
